Test results published in the supplement of paper PMC10307832.

How the values were obtained:
Experiment in all cases: relative viability (nuclei count vs DMSO), 5 days (fraction); higher = more cells survive
[1] = compound: Cn1cncc1[C@@](N)(c1ccc(Cl)cc1)c1ccc2c(c1)c(-c1cccc(Cl)c1)cc(=O)n2C [Tipifarnib] + COc1cc2c(Oc3ccc(NC(=O)C4(C(=O)Nc5ccc(F)cc5)CC4)cc3F)ccnc2cc1OCCCN1CCOCC1 [Foretinib] (partner 0.25 µM)
Summary of the method: (§1)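 Dosing by pin tool came one day after lung cancer cell lines were seeded in 1536-well plates, using either one drug or a fixed anchor-drug dose plus five library-drug doses (not always all listed) in √10 steps. After 5 days, nuclei were counted on 4× images. Relative viability is treated-well nuclei count divided by vehicle-well nuclei count, and values are medians of duplicate plates.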

[2] = compound: Cn1cncc1[C@@](N)(c1ccc(Cl)cc1)c1ccc2c(c1)c(-c1cccc(Cl)c1)cc(=O)n2C [Tipifarnib] + COc1cccc2cc(-c3nc([C@H]4CC[C@H](C(=O)O)CC4)n4ncnc(N)c34)[nH]c12 [OSI-027] (partner 0.5 µM)
Summary of the method: as §1

[3] = compound: Cn1cncc1[C@@](N)(c1ccc(Cl)cc1)c1ccc2c(c1)c(-c1cccc(Cl)c1)cc(=O)n2C [Tipifarnib] + NC(=O)Nc1cc(-c2cccc(F)c2)sc1C(=O)N[C@H]1CCCNC1 [AZD7762] (partner 0.2 µM)
Summary of the method: as §1

[4] = compound: Cn1cncc1[C@@](N)(c1ccc(Cl)cc1)c1ccc2c(c1)c(-c1cccc(Cl)c1)cc(=O)n2C [Tipifarnib] + Nc1nc2[nH]cc(CCc3ccc(C(=O)N[C@@H](CCC(=O)O)C(=O)O)cc3)c2c(=O)[nH]1 [Pemetrexed] (partner 0.2 µM)
Summary of the method: as §1

Cell Line	relative viability ([1]; first compound 0.01 µM)	relative viability ([1]; first compound 0.03162 µM)	relative viability ([1]; first compound 0.1 µM)	relative viability ([1]; first compound 0.3162 µM)	relative viability ([1]; first compound 1 µM)	relative viability ([2]; first compound 0.01 µM)	relative viability ([2]; first compound 0.03162 µM)	relative viability ([2]; first compound 0.1 µM)	relative viability ([2]; first compound 0.3162 µM)	relative viability ([2]; first compound 1 µM)	relative viability ([3]; first compound 0.01 µM)	relative viability ([3]; first compound 0.03162 µM)	relative viability ([3]; first compound 0.1 µM)	relative viability ([3]; first compound 0.3162 µM)	relative viability ([3]; first compound 1 µM)	relative viability ([4]; first compound 0.01 µM)	relative viability ([4]; first compound 0.03162 µM)	relative viability ([4]; first compound 0.1 µM)	relative viability ([4]; first compound 0.3162 µM)	relative viability ([4]; first compound 1 µM)
NCI-H2342	1.06	0.984	0.884	0.824	0.771	0.634	0.542	0.631	0.564	0.448	0.509	0.506	0.36	0.449	0.39	0.906	0.776	0.71	0.64	0.509
A-427	1.19	1.06	1.06	0.873	0.927	0.406	0.316	0.365	0.361	0.254	0.837	0.79	0.553	0.599	0.601	0.998	1.06	0.82	0.979	0.739
H3255	0.921	0.977	0.805	0.636	0.508	0.757	0.704	0.61	0.471	0.438	1.04	0.918	0.736	0.559	0.514	0.674	0.543	0.562	0.541	0.499
NCI-H1734	0.902	0.832	0.729	0.458	0.487	0.581	0.444	0.463	0.316	0.365	0.537	0.46	0.403	0.352	0.257	0.38	0.442	0.428	0.419	0.394
NCI-H1993	0.832	0.716	0.589	0.605	0.548	0.469	0.613	0.531	0.644	0.604	0.765	0.591	0.571	0.437	0.484	0.664	0.55	0.647	0.427	0.605
NCI-H1437	1.32	1.29	1.38	0.955	1.29	0.823	0.728	0.488	0.446	0.33	1.12	1.14	1.1	1.06	1.11	0.32	0.344	0.322	0.285	0.297
201T	1.13	1.09	1.02	0.839	0.875	0.706	0.805	0.692	0.46	0.368	0.679	0.628	0.573	0.546	0.449	0.363	0.338	0.371	0.317	0.346
NCI-H358	0.884	0.761	0.563	0.433	0.296	0.803	0.788	0.429	0.385	0.178	0.563	0.511	0.575	0.382	0.378	0.183	0.185	0.193	0.182	0.169
ChaGo-K-1	1.06	0.873	0.848	0.852	0.665	0.483	0.548	0.602	0.442	0.332	0.904	0.936	0.931	0.745	0.411	0.262	0.274	0.265	0.27	0.272
LOU-NH91	0.943	1	0.83	0.695	0.693	0.698	0.589	0.5	0.485	0.467	0.715	0.685	0.636	0.625	0.503	0.347	0.409	0.412	0.408	0.459
HOP-62	0.809	0.671	0.464	0.305	0.542	0.639	0.382	0.33	0.263	0.317	0.573	0.169	0.196	0.152	0.261	0.233	0.297	0.276	0.208	0.222
NCI-H1915	1.01	0.816	0.606	0.593	0.577	0.445	0.357	0.399	0.325	0.288	0.643	0.583	0.398	0.332	0.319	0.549	0.449	0.449	0.353	0.298
NCI-H3122	0.957	0.796	0.744	0.693	0.544	0.949	0.568	0.384	0.233	0.225	0.967	0.971	0.714	0.556	0.348	0.205	0.204	0.199	0.188	0.188
NCI-H1651	0.833	0.79	0.85	0.717	0.831	0.65	0.729	0.673	0.558	0.456	0.536	0.467	0.524	0.44	0.363	0.592	0.636	0.676	0.635	0.522
NCI-H838	1.01	0.805	0.848	0.695	0.75	0.357	0.339	0.23	0.231	0.184	1.01	0.965	0.905	0.836	0.851	0.259	0.264	0.293	0.269	0.269
NCI-H596	1.05	0.857	0.619	0.569	0.53	0.725	0.627	0.606	0.398	0.506	1.1	1.09	1.08	0.822	0.776	0.488	0.492	0.482	0.528	0.514
